Target: T1, DPP-IV (Homo sapiens, UniProt P27487)
T1 construct: Soluble human DPP-IV lacking the transmembrane anchor (Gly31-Pro766) was expressed in a recombinant YEAST-strain; Pre-Pro-alpha-mating factor leader (secretion fusion) (N, cleaved yes); made in house
Assay: Inhibition of DPP-IV peptidase activity, continuous fluorimetric assay (Gly-Pro-AMC cleavage)
Type: biochemical, human and porcine
Conditions: inhibition of DPP-IV peptidase activity; 50 pM DPP-IV, 16 μM Gly-Pro-AMC, pH 7.4, 25° C.; values grouped in 3 classes; read-out: IC50
Procedure: Inhibition of DPP-IV peptidase activity was monitored with a continuous fluorimetric assay. This assay is based on the cleavage of the substrate Gly-Pro-AMC (Bachem) by DPP-IV, releasing free AMC. The assay is carried out in 96-well microtiterplates. In a total volume of 100 μL, compounds are preincubated with 50 pM DPP-IV employing a buffer containing 10 mM Hepes, 150 mM NaCl, 0.005% Tween 20 (pH 7.4). […] The final concentration of DMSO is 1%. The inhibitory potential of the compounds were determined.
Soluble human DPP-IV lacking the transmembrane anchor (Gly31-Pro766) was expressed in a recombinant YEAST-strain as Pre-Pro-alpha-mating fusion. The secreted product (rhuDPP-IV-Gly31-Pro766) was purified from fermentation broth (>90% purity).

T1 sequence (P27487 31-766): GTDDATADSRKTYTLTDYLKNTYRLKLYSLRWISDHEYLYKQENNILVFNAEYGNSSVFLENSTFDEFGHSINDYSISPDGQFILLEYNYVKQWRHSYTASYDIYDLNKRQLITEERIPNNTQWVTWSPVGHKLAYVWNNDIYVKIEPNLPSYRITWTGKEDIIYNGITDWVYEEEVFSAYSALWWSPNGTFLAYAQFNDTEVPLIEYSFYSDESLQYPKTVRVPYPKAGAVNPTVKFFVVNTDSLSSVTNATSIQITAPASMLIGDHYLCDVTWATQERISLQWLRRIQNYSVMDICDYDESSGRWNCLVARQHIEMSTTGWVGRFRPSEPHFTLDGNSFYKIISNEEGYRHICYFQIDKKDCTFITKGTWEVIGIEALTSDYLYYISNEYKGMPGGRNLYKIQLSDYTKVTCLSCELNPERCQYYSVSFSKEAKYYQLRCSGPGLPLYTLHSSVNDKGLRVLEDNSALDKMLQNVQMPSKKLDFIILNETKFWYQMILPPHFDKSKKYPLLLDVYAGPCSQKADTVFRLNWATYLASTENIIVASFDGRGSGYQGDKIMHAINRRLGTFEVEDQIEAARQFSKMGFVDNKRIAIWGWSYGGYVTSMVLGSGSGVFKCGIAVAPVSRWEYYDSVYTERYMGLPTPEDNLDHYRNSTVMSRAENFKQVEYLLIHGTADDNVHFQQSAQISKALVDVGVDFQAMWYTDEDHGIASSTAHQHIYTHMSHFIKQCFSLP

SMILES | IC50 [nM]
N[C@@H](CC(=O)NC(CN1CCCC1)c1ccccc1)Cc1ccccc1F (single isomer, unassigned) [Example 91] | 101 to 1000
N[C@@H](CC(=O)NCc1ccc2c(c1)CCO2)Cc1ccccc1F [Example 56] | 101 to 1000
N[C@@H](CC(=O)NCc1cc(Cl)ccc1Cl)Cc1ccccc1F [Example 51] | 101 to 1000
N[C@H](Cc1ccccc1F)CS(=O)(=O)NCc1ccc(C(F)(F)F)nc1 [Example 191, (R)-2-Amino-3-(2-fluoro-phenyl)-Propane-1-sulphonic acid (6-trifluoromethyl-pyridin-3-ylmethyl)-amide] | 101 to 1000
N[C@@H](CC(=O)NCc1cccc(Cl)c1)Cc1ccccc1F [Example 70] | 101 to 1000
NC(CC(=O)NCC(c1ccccc1)N1CCOCC1)Cc1ccccc1F (stereo not shown) [Example 167] | 101 to 1000
N[C@@H](CC(=O)NCc1ccccc1C(F)(F)F)Cc1ccccc1F [Example 69] | 1000 to 2000
N[C@@H](CC(=O)NCCc1ccccc1F)Cc1ccccc1F [Example 113] | 101 to 1000
CN(Cc1cn2ccccc2n1)C(=O)C[C@H](N)Cc1ccccc1F [Example 175] | 1000 to 2000
NC(CC(=O)NC1CCc2ccccc21)Cc1ccccc1F (stereo not shown) [Example 120] | 1000 to 2000
N[C@@H](CC(=O)NCc1cccc(-c2ccccc2)c1)Cc1ccccc1F [Example 64] | 1000 to 2000
N[C@@H](CC(=O)NCc1cccc(C(=O)NCc2ccccc2F)c1)Cc1ccccc1F [Example 33] | 101 to 1000
N[C@@H](CC(=O)NCc1cc(Cl)ccc1-n1cncn1)Cc1ccccc1F [Example 164] | 101 to 1000

From US20070197522A1, “Dpp-iv inhibitors” (priority 2004, published 2007)
